Laboratory results reported in US4999366A, “Isoxazolidine-3,5-diones, pharmaceutical compositions and method of treatment” (The North Carolina Central Univ., priority 1990, dated 1991).
Like-named read-outs stand apart in the source and are kept apart here.

Legend:
serum cholesterol [1] = assay: Serum cholesterol in normal CF1 mice (Example 10); type: in vivo, CF1 male mice; conditions: Mus musculus, 20 mg/kg/day ip
Protocol: (§1) The ten compounds listed in Table II below were tested for their hypolipidemic activity in CF1 mice.
(§2) Compounds A-J as defined above, were suspended in an aqueous 1percent carboxymethylcellulose (CMC) solution and homogenized. Each of the so prepared compounds were administered to a group of six CF1 male mice, each weighing approximately 25 grams, intraperitioneally for 16 days. Each of these compounds were provided in a dosage of 20 mg/kg/day ip. On Days 9 and 16 blood was obtained by tail vein bleeding. The blood serum so obtained was separated by centrifugation for three minutes. Serum cholesterol levels were determined by a modification of the Liebermann-Burchard reaction (Ness, Clin. Chim. Acta., Vol. 10, 229[1964]). Serum triglyceride levels were determined on Day 16 by use of the Fisher, Hycel Triglyceride Test Kit.
(§3) In addition to the above-described treated mice, an untreated control group of six mice were similarly tested on Days 9 and 16 to determine their serum cholesterol and trigylceride blood levels. Based on the results obtained for the untreated control group, the percent control, based on serum cholesterol and serum triglyceride levels of the treated mice compared to the untreated mice, was obtained. Table III reports this percent control, including standard deviation, indicating the level of confidence of these numbers.

serum triglyceride [2] = assay: Serum triglyceride in normal CF1 mice (Example 10); type: in vivo, CF1 male mice; conditions: Mus musculus, 384 h, 20 mg/kg/day ip, Day 16, ± standard deviation, read-out: Serum Triglyceride, Day 16 (percent control)
Protocol: as §1, §2, §3

plasma lipid level = conditions: rats; cited from earlier work
serum cholesterol [3] = assay: Serum cholesterol in hyperlipidemic mice on atherogenic diet (Example 11); type: in vivo, CF1 male mice; conditions: hyperlipidemic CF1 mice, 20 mg/kg/day ip, Day 14, from 375 mg %
Protocol: (§4) A group of six CF^1 male mice (about 25 g) was placed on a commercial diet (U.S. Biochemical Corporation BAsal Atherogenic Test Diet) which produced a "hyperlipidemic" state. That is, the average serum cholesterol level in the group of treated mice was raised from 122 to 375 mg % and triglyceride levels were raised from 137 to 367 mg/dl.
(§5) Upon reaching these hyperlipidemic levels, the mice were administered Compound D in a concentration of 20 mg/kg/day intraperitoneally for 14 days while continuing the diet. On Day 14, serum cholesterol and serum triglyceride levels were measured in accordance with the procedure of Example 10.

serum triglyceride [4] = assay: Serum triglyceride in hyperlipidemic mice on atherogenic diet (Example 11); type: in vivo, CF1 male mice; conditions: hyperlipidemic CF1 mice, 20 mg/kg/day ip, Day 14, from 367 mg/dl
Protocol: as §4, §5

serum cholesterol [5] = assay: Serum cholesterol in normal rats (Example 12); type: in vivo, Sprague-Dawley male rats; conditions: 20 mg/kg/day orally
Protocol: (§6) A solution of Compound D, 2-(3,4,5-trimethoxybenzoyl)-4,4-diethylisoxazolidine-3,5-dione, was suspended in an aqueous solution of 1% CMC, homogenized and administered orally to six Sprague-Dawley male rats, which each weighed approximately 350 grams. Similarly, six Sprague-Dawley male rats of approximately the same weight were administered similar volumes of the same aqueous 1% CMC solution without the active agent, Compound D, also orally. In each case, administration was by intubation needle at 20 mg/kg/day for 14 days. In addition, as a control, a similar group of six male Sprague-Dawley rats were untreated.
(§7) On Days 7 and 14, blood was obtained from each of the rats of the three groups by tail vein bleeding. The blood obtained was separated by centrifugation for three minutes. Serum cholesterol and triglyceride levels were determined in accordance with the procedure of Example 10.

serum triglyceride [6] = assay: Serum triglyceride in normal rats (Example 12); type: in vivo, Sprague-Dawley male rats; conditions: 20 mg/kg/day orally
Protocol: as §6, §7

[7] = 216 h, Day 9, ± standard deviation, read-out: Serum Cholesterol, Day 9 (percent control)
[8] = 384 h, Day 16, ± standard deviation, read-out: Serum Cholesterol, Day 16 (percent control)

With `C=C(C)N1OC(=O)C(CC)(CC)C1=O` [A] the response vs control in vivo at 20 mg/kg/day (serum cholesterol [1]; [7]) was 70 ± 7%, the response vs control in vivo at 20 mg/kg/day (serum cholesterol [1]; [8]) was 75 ± 4% and the response vs control in vivo at 20 mg/kg/day (serum triglyceride [2]) was 71 ± 6%.

In the case of `CCC1(CC)C(=O)ON(C(=O)c2ccccc2)C1=O` [E, 2-benzoyl-4,4-diethylisoxazolidine-3,5-dione], the response vs control in vivo at 20 mg/kg/day (serum cholesterol [1]; [7]) is reported as 77 ± 5%, the response vs control in vivo at 20 mg/kg/day (serum cholesterol [1]; [8]) is reported as 53 ± 6% and the response vs control in vivo at 20 mg/kg/day (serum triglyceride [2]) is reported as 63 ± 7%.

In the case of `C=C(c1ccccc1)N1OC(=O)C(CC)(CC)C1=O` [B, 2-(1-phenylethenyl)-4,4-diethylisoxazolidine-3,5-dione], the response vs control in vivo at 20 mg/kg/day (serum cholesterol [1]; [7]) is reported as 71 ± 5%, the response vs control in vivo at 20 mg/kg/day (serum cholesterol [1]; [8]) is reported as 63 ± 6% and the response vs control in vivo at 20 mg/kg/day (serum triglyceride [2]) is reported as 71 ± 4%.

For `O=C(O)c1cc(=O)[nH]c(=O)[nH]1` [orotic acid], the plasma lipid level (plasma lipid level) is given as “decrease the plasma lipid level in rats”.

With `CCC1(CC)C(=O)ON(C(C)(C)N2OC(=O)C(CC)(CC)C2=O)C1=O` [F, 2,2-bis-[2-(4,4-diethylisoxazolidine-3,5-dione)]propane] the response vs control in vivo at 20 mg/kg/day (serum cholesterol [1]; [7]) was 95 ± 4%, the response vs control in vivo at 20 mg/kg/day (serum cholesterol [1]; [8]) was 57 ± 6% and the response vs control in vivo at 20 mg/kg/day (serum triglyceride [2]) was 68 ± 8%.

Work on `CCC1(CC)C(=O)ON(C(=O)c2cc(OC)c(OC)c(OC)c2)C1=O` [Compound D, 2-(3,4,5-trimethoxybenzoyl)-4,4-diethylisoxazolidine-3,5-dione] yielded a response vs control in vivo at 20 mg/kg/day (serum cholesterol [1]; [7]) of 82 ± 6%, a response vs control in vivo at 20 mg/kg/day (serum cholesterol [1]; [8]) of 51 ± 5% and a response vs control in vivo at 20 mg/kg/day (serum triglyceride [2]) of 66 ± 6%. For the same compound, the “serum cholesterol level after treatment” value (serum cholesterol [3]) was 150 mg %, the “serum cholesterol remaining, percent of pre-treatment level” value (serum cholesterol [3]) was 40% and the “serum triglyceride level after treatment” value (serum triglyceride [4]) was 187 mg/dL. The “serum triglyceride level remaining, percent of pre-treatment level” value (serum triglyceride [4]) was 51%, the “serum cholesterol level compared to control rats, Day 7” value (serum cholesterol [5]; Day 7) was 77% and the “serum cholesterol level compared to control rats, Day 14” value (serum cholesterol [5]; Day 14) was 61%. The “average serum triglyceride level compared to control, Day 7” value (serum triglyceride [6]; Day 7) was 64% and the “serum triglyceride level compared to control, Day 14” value (serum triglyceride [6]; Day 14) was 43%.

For `CCC1(CC)C(=O)ON(C(=O)c2ccc(Cl)cc2)C1=O` [J, 2-(4-chlorobenzoyl)-4,4-diethylisoxazolidine-3,5-dione], the response vs control in vivo at 20 mg/kg/day (serum cholesterol [1]; [7]) was 64%, the response vs control in vivo at 20 mg/kg/day (serum cholesterol [1]; [8]) was 45% and the response vs control in vivo at 20 mg/kg/day (serum triglyceride [2]) was 76%.

Work on `CCC1(CC)C(=O)ON(C2(N3OC(=O)C(CC)(CC)C3=O)CCCCC2)C1=O` [C, 1,1-bis-[2-(4,4-diethylisoxazolidine-3,5-dione)]cyclohexane] yielded a response vs control in vivo at 20 mg/kg/day (serum cholesterol [1]; [7]) of 86 ± 7%, a response vs control in vivo at 20 mg/kg/day (serum cholesterol [1]; [8]) of 73 ± 7% and a response vs control in vivo at 20 mg/kg/day (serum triglyceride [2]) of 77 ± 9%.

Compound `CCC1(CC)C(=O)ON(C(=O)c2ccc(C)cc2)C1=O` [I, 2-(4-methylbenzoyl)-4,4-diethylisoxazolidine-3,5-dione] has a response vs control in vivo at 20 mg/kg/day (serum cholesterol [1]; [7]) of 73%, a response vs control in vivo at 20 mg/kg/day (serum cholesterol [1]; [8]) of 46% and a response vs control in vivo at 20 mg/kg/day (serum triglyceride [2]) of 86%.

`CCC1(CC)C(=O)ON(C(=O)c2ccc(OC)cc2)C1=O` [H, 2-(4-methoxybenzoyl)-4,4-diethylisoxazolidine-3,5-dione] showed a response vs control in vivo at 20 mg/kg/day (serum cholesterol [1]; [7]) of 89%, a response vs control in vivo at 20 mg/kg/day (serum cholesterol [1]; [8]) of 62% and a response vs control in vivo at 20 mg/kg/day (serum triglyceride [2]) of 63%.

With `CCC1(CC)C(=O)ON(C(=O)c2ccc(OC)c(OC)c2)C1=O` [G, 2-(3,4-dimethoxybenzoyl)-4,4-diethylisoxazolidine-3,5-dione] the response vs control in vivo at 20 mg/kg/day (serum cholesterol [1]; [7]) was 81%, the response vs control in vivo at 20 mg/kg/day (serum cholesterol [1]; [8]) was 77% and the response vs control in vivo at 20 mg/kg/day (serum triglyceride [2]) was 84%.
